Measured values published in the supplement of paper PMC10331698.
± gives the standard deviation of the averaged measurements.

Columns and labels:
Assay in all cases: level (log10 ratio to DMSO vehicle control); higher = higher biomarker level / cell amount than vehicle control
[1] = compound: C=C(C)C(=O)OCCC(F)(F)C(F)(F)C(F)(F)C(F)(F)C(F)(F)C(F)(F)C(F)(F)C(F)(F)F [8:2 Fluorotelomer methacrylate] (in DMSO)
Protocol: (§1)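 BioMAP Diversity Plus panel of 12 human primary cell co-culture systems (3C, 4H, LPS, SAg, BT, BF4T, BE3C, CASM3C, HDF3CGF, KF3CT, MyoF, Mphg). Compounds were added 1 h before stimulation and left for 24 h (MyoF 48 h; BT 72 h for soluble read-outs or 6 d for IgG). Biomarkers were read by ELISA, cytotoxicity by SRB, PBMC viability and proliferation by Alamar Blue. Each well value was divided by the mean of 8 DMSO control wells on the same plate and log10 transformed; duplicate blinded samples were tested at 4 concentrations.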

[2] = compound: O=C(O)C(F)(F)C(F)(F)C(F)(F)C(F)(F)C(F)(F)C(F)(F)C(F)(F)C(F)(F)F [Perfluorononanoic acid] (in DMSO)
Protocol: as §1

[3] = compound: O=C(O)C(F)(F)OC(F)(F)C(F)(F)OC(F)(F)C(F)(F)OC(F)(F)C(F)(F)C(F)(F)C(F)(F)F [Perfluoro-3,6,9-trioxatridecanoic acid] (in DMSO); conditions: 6700 nM
Protocol: as §1

[4] = compound: OCC(F)(F)C(F)(F)C(F)(F)C(F)(F)C(F)(F)C(F)(F)CO [1H,1H,8H,8H-Perfluorooctane-1,8-diol] (in DMSO)
Protocol: as §1

[5] = compound: NS(=O)(=O)C(F)(F)C(F)(F)C(F)(F)C(F)(F)C(F)(F)C(F)(F)C(F)(F)C(F)(F)F [Perfluorooctanesulfonamide] (in DMSO)
Protocol: as §1

[6] = compound: O=C(O)C(F)(F)C(F)(F)C(F)(F)OC(F)(F)F [Perfluoro(4-methoxybutanoic) acid] (in DMSO)
Protocol: as §1

[7] = compound: OCC(F)(F)C(F)(F)C(F)(F)C(F)F [1H,1H,5H-Perfluoropentanol] (in DMSO)
Protocol: as §1

[8] = compound: O=C(O)C(F)(OC(F)(F)C(F)(OC(F)(F)C(F)(OC(F)(F)C(F)(F)C(F)(F)F)C(F)(F)F)C(F)(F)F)C(F)(F)F [Perfluoro-(2,5,8-trimethyl-3,6,9-trioxadodecanoic)acid] (in DMSO)
Protocol: as §1

Test System | level (log10) ([1]; 6700 nM) | level (log10) ([1]; 20000 nM) | level (log10) ([2]; 6700 nM) | level (log10) ([2]; 20000 nM) | level (log10) [3] | level (log10) ([4]; 6700 nM) | level (log10) ([4]; 20000 nM) | level (log10) ([4]; 60000 nM) | level (log10) ([5]; 6700 nM) | level (log10) ([5]; 20000 nM) | level (log10) ([6]; 6700 nM) | level (log10) ([6]; 20000 nM) | level (log10) ([6]; 60000 nM) | level (log10) ([7]; 6700 nM) | level (log10) ([7]; 20000 nM) | level (log10) ([7]; 60000 nM) | level (log10) ([8]; 1100 nM) | level (log10) ([8]; 3300 nM) | level (log10) ([8]; 10000 nM)
3C:CCL2/MCP-1 | 0.0115 ± 0.012 | 0.009 ± 0.0014 | -0.014 ± 0.038 | -0.0045 ± 0.016 | 0.0155 ± 0.021 | -0.006 ± 0.0014 | -0.0175 ± 0.0092 | 0.002 ± 0.027 | -0.0015 ± 0.0021 | 0.085 ± 0.0057 | -0.012 ± 0.0028 | -0.006 ± 0.0028 | 0.031 ± 0.041 | -0.0055 ± 0.015 | 0.03 ± 0.024 | 0.042 ± 0.045 | -0.0075 ± 0.0035 | -0.0195 ± 0.00071 | 0.001 ± 0.034
3C:CD54/ICAM-1 | -0.0125 ± 0.016 | -0.0095 ± 0.025 | -0.028 ± 0.0014 | -0.023 ± 0.0099 | 0.0005 ± 0.021 | 0.0045 ± 0.0035 | 0.0025 ± 0.019 | 0.0015 ± 0.022 | -0.0005 ± 0.005 | 0.002 ± 0.011 | -0.0205 ± 0.011 | -0.0275 ± 0.00071 | -0.029 ± 0.0014 | -0.028 ± 0.0085 | -0.003 ± 0.0099 | 0.0125 ± 0.023 | 0.007 ± 0.02 | -0.0005 ± 0.00071 | 0.0185 ± 0.0064
3C:CD62E/E-Selectin | -0.024 ± 0.0085 | -0.0225 ± 0.005 | -0.0195 ± 0.0078 | -0.013 ± 0.013 | -0.0355 ± 0.0092 | 0.0005 ± 0.013 | -0.007 ± 0.0085 | 0.015 ± 0.013 | -0.006 ± 0.02 | 0.043 ± 0.011 | -0.012 ± 0.057 | -0.0085 ± 0.046 | -0.014 ± 0.0085 | -0.018 ± 0.018 | -0.015 | 0.008 ± 0.0014 | -0.0005 ± 0.016 | -0.0035 ± 0.005 | 0.019 ± 0.0071
3C:CD106/VCAM-1 | -0.0205 ± 0.019 | -0.0445 ± 0.015 | -0.0205 ± 0.016 | -0.0195 ± 0.023 | -0.0335 ± 0.023 | -0.0205 ± 0.0021 | -0.018 ± 0.0042 | -0.007 ± 0.0057 | -0.0005 ± 0.012 | 0.003 ± 0.013 | -0.007 ± 0.0071 | -0.0145 ± 0.035 | -0.0265 ± 0.0078 | -0.0245 ± 0.0078 | -0.012 | 0.0075 ± 0.0035 | -0.0075 ± 0.022 | -0.0055 ± 0.028 | -0.0005 ± 0.028
3C:CD141/Thrombomodulin | -0.031 ± 0.055 | -0.033 ± 0.02 | -0.0225 ± 0.00071 | -0.0285 ± 0.011 | -0.0155 ± 0.0021 | -0.015 ± 0.0057 | -0.0075 ± 0.016 | -0.001 ± 0.013 | 0.018 ± 0.0099 | 0.107 ± 0.0014 | 0.003 ± 0.055 | -0.0165 ± 0.11 | -0.0245 ± 0.12 | -0.006 ± 0.011 | -0.013 ± 0.013 | 0.0195 ± 0.011 | -0.0035 ± 0.026 | -0.0185 ± 0.029 | -0.01 ± 0.035
3C:CD142/Tissue Factor | 0.0445 ± 0.047 | 0.0595 ± 0.022 | -0.0555 ± 0.0021 | -0.0455 ± 0.032 | -0.0085 ± 0.03 | -0.0245 ± 0.026 | 0.0195 ± 0.026 | 0.0425 ± 0.012 | -0.05 ± 0.017 | -0.033 ± 0.031 | 0.0125 ± 0.077 | 0.013 ± 0.095 | -0.021 ± 0.12 | -0.0095 ± 0.00071 | -0.014 ± 0.025 | 0.021 ± 0.0085 | -0.013 ± 0.0042 | -0.0055 ± 0.015 | -0.005 ± 0.013
BE3C:Keratin 8/18 | -0.0195 ± 0.037 | -0.008 ± 0.071 | -0.0335 ± 0.04 | -0.0365 ± 0.032 | -0.293 ± 0.032 | -0.0155 ± 0.022 | -0.017 ± 0.0014 | -0.0375 ± 0.0035 | -0.0475 ± 0.013 | -0.0185 ± 0.0021 | -0.013 ± 0.0057 | -0.002 ± 0.0071 | -0.004 ± 0.011 | -0.0225 ± 0.011 | 0.0135 ± 0.005 | 0.0035 ± 0.025 | -0.0165 ± 0.028 | -0.0085 ± 0.022 | -0.001 ± 0.038
BE3C:MMP-1 | 0.0135 ± 0.012 | -0.003 ± 0.0057 | 0.05 ± 0.059 | 0.221 ± 0.035 | -0.471 ± 0.023 | 0.0125 ± 0.012 | -0.0055 ± 0.013 | 0.0425 ± 0.056 | 0.084 ± 0.021 | 0.154 ± 0.014 | 0.0115 ± 0.012 | -0.009 ± 0.041 | 0.029 ± 0.095 | -0.014 ± 0.011 | 0.029 ± 0.024 | 0.023 ± 0.03 | -0.0135 ± 0.00071 | -0.0175 ± 0.018 | 0.0135 ± 0.022
BE3C:MMP-9 | -0.0125 ± 0.06 | -0.024 ± 0.085 | -0.0075 ± 0.00071 | 0.0055 ± 0.011 | -0.4295 ± 0.0021 | -0.001 ± 0.028 | 0.0005 ± 0.016 | 0.0015 ± 0.005 | -0.101 ± 0.016 | -0.131 ± 0.0014 | -0.008 ± 0.0014 | 0.0035 ± 0.0064 | 0.011 ± 0.0057 | -0.009 ± 0.016 | 0.0235 ± 0.018 | 0.0175 ± 0.022 | -0.0155 ± 0.0092 | -0.011 ± 0.0071 | -0.0145 ± 0.011
BE3C:PAI-I | 0.001 ± 0.041 | -0.013 ± 0.076 | -0.013 ± 0.042 | -0.101 ± 0.019 | -0.526 ± 0.018 | 0.025 ± 0.024 | 0.031 ± 0.0099 | 0.0325 ± 0.011 | -0.194 ± 0.03 | -0.202 ± 0.016 | -0.005 ± 0.0085 | -0.001 ± 0.025 | -0.0005 ± 0.0021 | -0.043 ± 0.021 | 0.023 ± 0.048 | 0.0495 ± 0.047 | -0.0265 ± 0.036 | -0.0315 ± 0.022 | 0.006 ± 0.064
BE3C:SRB | -0.003 | 0.0025 ± 0.005 | -0.0015 ± 0.005 | -0.04 ± 0.0028 | -0.231 ± 0.012 | -0.003 ± 0.0028 | -0.0025 ± 0.0021 | -0.0015 ± 0.0035 | -0.0145 ± 0.0021 | -0.0315 ± 0.00071 | 0.0015 ± 0.0021 | 0.0005 ± 0.0078 | 0.003 ± 0.0099 | 0 ± 0.0014 | 0.0025 ± 0.0092 | 0.007 ± 0.011 | -0.0015 ± 0.0021 | -0.0075 ± 0.0035 | 0.0105 ± 0.015
BE3C:tPA | -0.0125 ± 0.067 | -0.036 ± 0.082 | -0.012 ± 0.0042 | -0.172 ± 0.023 | -0.452 ± 0.005 | 0.0105 ± 0.016 | 0.01 ± 0.011 | 0.03 ± 0.0057 | 0.0025 ± 0.035 | -0.058 ± 0.055 | 0.002 ± 0.023 | -0.0065 ± 0.011 | -0.0015 ± 0.016 | -0.019 ± 0.0042 | -0.022 ± 0.017 | -0.0035 ± 0.011 | -0.0035 ± 0.025 | 0.0075 ± 0.023 | 0.017 ± 0.04
BE3C:uPA | -0.0145 ± 0.012 | -0.0145 ± 0.059 | -0.0445 ± 0.08 | -0.0195 ± 0.076 | -0.349 ± 0.005 | -0.012 ± 0.0071 | -0.0125 ± 0.005 | -0.009 ± 0.024 | -0.0065 ± 0.013 | 0.0145 ± 0.0064 | -0.004 ± 0.017 | -0.0125 ± 0.012 | 0.0035 ± 0.005 | -0.0105 ± 0.016 | 0.001 ± 0.011 | 0.002 ± 0.041 | 0.0025 ± 0.0064 | -0.011 ± 0.0014 | -0.0025 ± 0.019
CASM3C:CCL2/MCP-1 | -0.011 ± 0.0099 | 0.0025 ± 0.037 | -0.0295 ± 0.049 | -0.0085 ± 0.054 | -0.0045 ± 0.023 | -0.0175 ± 0.011 | -0.024 ± 0.0057 | 0.0015 ± 0.019 | 0.01 ± 0.013 | 0.01 ± 0.023 | -0.01 ± 0.011 | -0.008 ± 0.0057 | 0.017 ± 0.031 | -0.0115 ± 0.012 | -0.0105 ± 0.013 | -0.0015 ± 0.011 | 0 ± 0.0042 | -0.008 ± 0.0028 | 0.0055 ± 0.005
